Source: ChEMBL document CHEMBL5096167, “Recent advances in development of hetero-bivalent kinase inhibitors” (Eur J Med Chem, 2021)
pIC50, pKd: −log10 of the molar value. *1 amine or outer side, *2 acyl side, *3 side chain or, on linkers, in order; H or OH if unused. Where a SMILES comes first, the peptide text is derived from it. [ ]: non-standard residue; d: D form. The star is where a group is joined. ξ: configuration not given here. X1 = Brc1c(Br)c(Br)c2[nH]c(NCCCN*)nc2c1Br; X2 = O=C(Cc1c(Br)c(Br)c(Br)c2[nH]nnc12)*; Suc = O=C(CCC(=O)[*:2])[*:1]; ξE = NC(CCC(=O)O)C(=O)O; ξS = NC(CO)C(=O)O

Assays:
[1] = target: T1, cAMP-dependent protein kinase (PKA) (Homo sapiens, UniProt P22694+P17612+P22612); experiment: Binding affinity to PKA (unknown origin) assessed as dissociation constant; assay type: protein assay
[2] = target: Rho-associated protein kinase 2 (Homo sapiens, UniProt O75116); experiment: Inhibition of ROCK2 (unknown origin) assessed as dissociation constant
Chain of Rho-associated protein kinase 2 (O75116 whole entry): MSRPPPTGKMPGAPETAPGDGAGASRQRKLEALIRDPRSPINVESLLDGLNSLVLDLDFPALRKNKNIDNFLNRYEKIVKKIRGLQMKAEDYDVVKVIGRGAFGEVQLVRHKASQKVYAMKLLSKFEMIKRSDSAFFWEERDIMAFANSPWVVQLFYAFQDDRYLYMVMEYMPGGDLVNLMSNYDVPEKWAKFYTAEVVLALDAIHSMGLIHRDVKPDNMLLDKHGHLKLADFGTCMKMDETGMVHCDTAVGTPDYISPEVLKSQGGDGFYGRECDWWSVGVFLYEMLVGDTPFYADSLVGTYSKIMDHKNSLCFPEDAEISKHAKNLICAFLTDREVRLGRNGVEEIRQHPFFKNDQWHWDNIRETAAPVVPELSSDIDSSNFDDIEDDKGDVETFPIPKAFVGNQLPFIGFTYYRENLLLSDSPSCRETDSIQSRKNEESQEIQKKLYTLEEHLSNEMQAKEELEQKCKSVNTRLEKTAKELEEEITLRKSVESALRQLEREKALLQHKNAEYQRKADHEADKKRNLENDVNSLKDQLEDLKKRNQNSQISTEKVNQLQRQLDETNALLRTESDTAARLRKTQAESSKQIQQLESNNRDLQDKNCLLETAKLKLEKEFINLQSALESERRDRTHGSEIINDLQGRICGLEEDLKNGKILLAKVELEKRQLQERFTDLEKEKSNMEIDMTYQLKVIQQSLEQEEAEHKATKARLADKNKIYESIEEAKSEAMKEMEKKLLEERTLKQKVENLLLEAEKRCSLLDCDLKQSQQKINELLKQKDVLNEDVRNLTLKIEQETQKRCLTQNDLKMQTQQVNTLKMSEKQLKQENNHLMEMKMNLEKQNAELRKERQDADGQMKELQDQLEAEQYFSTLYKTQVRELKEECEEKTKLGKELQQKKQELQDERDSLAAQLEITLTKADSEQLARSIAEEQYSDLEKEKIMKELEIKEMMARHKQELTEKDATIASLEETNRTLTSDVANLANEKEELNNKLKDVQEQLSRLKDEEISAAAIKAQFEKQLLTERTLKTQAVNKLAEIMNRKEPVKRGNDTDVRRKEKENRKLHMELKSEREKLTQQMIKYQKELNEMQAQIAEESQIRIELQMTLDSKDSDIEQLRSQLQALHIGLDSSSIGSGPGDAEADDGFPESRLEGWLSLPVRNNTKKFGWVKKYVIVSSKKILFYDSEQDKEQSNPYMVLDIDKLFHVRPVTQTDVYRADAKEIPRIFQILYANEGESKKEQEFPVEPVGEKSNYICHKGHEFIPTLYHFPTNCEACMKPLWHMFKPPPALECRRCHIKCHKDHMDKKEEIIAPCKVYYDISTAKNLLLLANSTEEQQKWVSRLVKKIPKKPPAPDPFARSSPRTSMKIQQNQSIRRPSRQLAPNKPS

Homo sapiens [3] = species on record: Homo sapiens; experiment: Selectivity ratio of Kd for inhibition of Untagged full length human PKAc alpha expressed in Escherichia coli BL21 DE3 cells assessed as dissociation constant to Kd for AKR3
[4] = Inhibition of AKR3 (unknown origin) assessed as dissociation constant; parameters: species or system Homo sapiens
[5] = Binding affinity to PKAc (unknown origin) assessed as dissociation constant; parameters: species or system Homo sapiens
Homo sapiens [6] = species on record: Homo sapiens; experiment: Selectivity ratio of Kd for inhibition of Untagged full length human PKAc alpha expressed in Escherichia coli BL21 DE3 cells assessed as dissociation constant to Kd for inhibition of ROCK2 (unknown origin)
[7] = Inhibition of CK2alpha2beta2 (unknown origin); parameters: species or system Homo sapiens
[8] = target: Mitogen-activated protein kinase 1 (Homo sapiens, UniProt P28482)
Chain of Mitogen-activated protein kinase 1 (P28482 whole entry): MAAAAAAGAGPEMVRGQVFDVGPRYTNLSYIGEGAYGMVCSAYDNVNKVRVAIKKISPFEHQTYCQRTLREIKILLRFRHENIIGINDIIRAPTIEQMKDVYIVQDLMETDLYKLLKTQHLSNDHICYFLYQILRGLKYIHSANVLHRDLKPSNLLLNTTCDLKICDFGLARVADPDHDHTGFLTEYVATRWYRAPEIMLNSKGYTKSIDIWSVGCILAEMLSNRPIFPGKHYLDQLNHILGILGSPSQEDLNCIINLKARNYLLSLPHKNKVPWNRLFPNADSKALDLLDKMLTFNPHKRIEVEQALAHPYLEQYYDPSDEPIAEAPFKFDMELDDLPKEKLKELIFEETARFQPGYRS

Ephrin type-A receptor 3 = target: T2, Ephrin type-A receptor 3 (Homo sapiens, UniProt P29320); experiment: Inhibition of EPHA3 (unknown origin) assessed as dissociation constant by ELISA-like binding assay
T2 sequence (P29320 whole entry): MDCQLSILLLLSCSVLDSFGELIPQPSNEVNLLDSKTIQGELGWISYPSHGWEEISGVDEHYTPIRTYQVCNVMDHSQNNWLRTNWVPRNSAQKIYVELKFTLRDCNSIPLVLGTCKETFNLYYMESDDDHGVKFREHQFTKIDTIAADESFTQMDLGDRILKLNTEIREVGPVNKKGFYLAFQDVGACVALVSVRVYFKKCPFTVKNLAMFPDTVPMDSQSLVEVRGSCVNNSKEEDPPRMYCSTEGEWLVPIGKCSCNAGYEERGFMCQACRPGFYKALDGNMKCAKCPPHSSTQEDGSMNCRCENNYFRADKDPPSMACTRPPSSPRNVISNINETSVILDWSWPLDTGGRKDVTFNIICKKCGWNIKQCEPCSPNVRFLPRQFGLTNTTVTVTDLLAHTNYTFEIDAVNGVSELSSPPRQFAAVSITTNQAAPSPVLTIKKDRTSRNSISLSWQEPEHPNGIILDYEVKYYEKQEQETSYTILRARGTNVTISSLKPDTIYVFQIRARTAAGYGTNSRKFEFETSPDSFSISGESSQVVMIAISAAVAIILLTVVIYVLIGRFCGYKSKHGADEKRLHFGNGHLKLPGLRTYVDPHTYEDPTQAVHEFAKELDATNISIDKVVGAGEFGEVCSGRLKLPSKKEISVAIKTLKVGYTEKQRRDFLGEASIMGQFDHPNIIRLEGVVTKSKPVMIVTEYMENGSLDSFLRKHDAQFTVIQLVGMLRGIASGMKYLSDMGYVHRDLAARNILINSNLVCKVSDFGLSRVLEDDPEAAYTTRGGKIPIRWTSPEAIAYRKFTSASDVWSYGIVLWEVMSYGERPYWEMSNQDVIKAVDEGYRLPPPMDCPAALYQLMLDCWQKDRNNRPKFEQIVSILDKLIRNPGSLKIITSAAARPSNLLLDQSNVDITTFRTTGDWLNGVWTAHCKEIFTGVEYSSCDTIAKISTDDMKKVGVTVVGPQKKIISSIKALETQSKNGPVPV

Casein kinase 2 = Casein kinase 2 (Homo sapiens, UniProt P67870+P68400+P19784+Q8NEV1); experiment: Inhibition of human CK2; assay type: protein assay
[9] = target: T1, cAMP-dependent protein kinase (PKA)
[10] = target: Proto-oncogene tyrosine-protein kinase Src (Homo sapiens, UniProt P12931); experiment: Inhibition of c-Src (unknown origin)
Chain of Proto-oncogene tyrosine-protein kinase Src (P12931 2-536 limits assumed): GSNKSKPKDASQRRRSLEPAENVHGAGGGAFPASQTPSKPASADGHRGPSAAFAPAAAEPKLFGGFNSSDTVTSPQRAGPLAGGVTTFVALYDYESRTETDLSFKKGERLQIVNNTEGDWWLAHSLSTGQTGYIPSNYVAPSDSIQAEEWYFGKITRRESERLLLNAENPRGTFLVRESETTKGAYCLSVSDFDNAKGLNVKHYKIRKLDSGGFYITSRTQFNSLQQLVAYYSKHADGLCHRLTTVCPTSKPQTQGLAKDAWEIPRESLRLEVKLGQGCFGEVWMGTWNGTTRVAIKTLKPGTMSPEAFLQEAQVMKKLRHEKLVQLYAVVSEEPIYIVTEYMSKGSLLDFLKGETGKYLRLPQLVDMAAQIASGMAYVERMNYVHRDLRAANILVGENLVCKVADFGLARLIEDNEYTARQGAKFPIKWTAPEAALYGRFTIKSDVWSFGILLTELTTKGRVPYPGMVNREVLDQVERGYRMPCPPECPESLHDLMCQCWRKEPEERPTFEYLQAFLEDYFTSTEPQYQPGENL

[11] = target: T3, Serine/threonine-protein kinase haspin (Homo sapiens, UniProt Q8TF76)
T3 sequence (Q8TF76 whole entry): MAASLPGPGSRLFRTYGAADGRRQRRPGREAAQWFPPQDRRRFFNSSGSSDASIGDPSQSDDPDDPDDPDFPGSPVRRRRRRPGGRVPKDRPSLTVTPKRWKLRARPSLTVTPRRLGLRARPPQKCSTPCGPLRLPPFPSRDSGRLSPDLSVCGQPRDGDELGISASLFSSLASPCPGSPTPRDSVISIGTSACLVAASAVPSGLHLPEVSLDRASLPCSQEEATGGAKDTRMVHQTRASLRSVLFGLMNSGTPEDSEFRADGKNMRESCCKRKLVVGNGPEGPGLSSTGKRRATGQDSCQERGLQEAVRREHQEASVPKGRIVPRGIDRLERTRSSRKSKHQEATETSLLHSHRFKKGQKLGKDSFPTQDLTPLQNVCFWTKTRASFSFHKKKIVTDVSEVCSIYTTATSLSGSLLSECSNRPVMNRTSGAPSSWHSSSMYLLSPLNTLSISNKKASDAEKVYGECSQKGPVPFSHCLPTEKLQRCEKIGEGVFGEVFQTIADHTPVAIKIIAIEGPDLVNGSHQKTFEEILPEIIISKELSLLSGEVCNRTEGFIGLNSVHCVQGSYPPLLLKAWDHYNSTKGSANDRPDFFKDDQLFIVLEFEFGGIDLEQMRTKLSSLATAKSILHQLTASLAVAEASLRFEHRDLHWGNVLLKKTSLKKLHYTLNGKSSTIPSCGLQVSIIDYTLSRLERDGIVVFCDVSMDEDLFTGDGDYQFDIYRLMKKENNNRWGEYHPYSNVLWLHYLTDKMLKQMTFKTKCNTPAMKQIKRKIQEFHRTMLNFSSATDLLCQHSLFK

Homo sapiens [12] = species on record: Homo sapiens
[13] = Binding affinity to full length human recombinant PKAc assessed as dissociation constant

Work on `N=C(N)NCCC[C@@H](NC(=O)CCCCCCCC(=O)N1CCN(C2N=CN=C3NC=CC32)CC1)C(=O)N[C@H](CCCNC(=N)N)C(=O)N[C@H](CCCNC(=N)N)C(=O)N[C@H](CCCNC(=N)N)C(=O)N[C@H](CCCNC(=N)N)C(=O)N[C@H](CCCNC(=N)N)C(=O)N[C@H](CCCCN)C(N)=O` (stereo not given in full) yielded a Kd [1] of 0.1 nM, a pKd [2] of 7.52 and a Selectivity ratio (Homo sapiens [3]) of 10. The pKd [4] was 6.51, the pKd [5] was 11.52 and the Ratio (Homo sapiens [6]) was 10.

With `COC(=O)CC[C@H](NC(=O)CCC(=O)NCCCNc1nc2c(Br)c(Br)c(Br)c(Br)c2[nH]1)C(=O)N[C@@H](CCC(=O)OC)C(=O)N[C@@H](CCC(=O)OC)C(=O)N[C@@H](CCC(=O)OC)C(=O)OC` ({X1-Suc}-E(OMe)E(OMe)E(OMe)E(OMe)-OMe) the pIC50 [7] was 5.00.

`C#CCCCCNC(=O)CCCCCn1nc(N)c2cc(-c3c(-c4ccccc4)nn4ccccc34)nnc21` showed a pIC50 [8] of 5.92.

`CC(C)(C)n1nc(-c2ccc(Cl)cc2)c2c(N)ncnc21` showed a pKd (Ephrin type-A receptor 3) of 3.70.

Compound `NC(=O)C(CCC(=O)O)NC(=O)C(CCC(=O)O)NC(=O)C(CCC(=O)O)NC(=O)C(CO)NC(=O)C(CCC(=O)O)NC(=O)[C@@H](N)CCCCNC(=O)Cc1c(Br)c(Br)c(Br)c2[nH]nnc12` (stereo not given in full) (H-K(X2)[ξE][ξS][ξE][ξE][ξE]-NH2) has an IC50 (Casein kinase 2) of 670 nM.

In the case of `CO[C@@H]1[C@H](N(C)C(=O)CCC(=O)NCCCOCCOCCOCCCNC(=O)COCC(=O)N[C@H]2CSSC[C@@H](C(=O)NCC(N)=O)NC(=O)NC(=O)[C@H](Cc3ccccc3)NC(=O)[C@H](C(C)C)NC(=O)[C@H](CCCNC(=N)N)NC(=O)[C@H](Cc3ccccc3)NC(=O)[C@H]([C@@H](C)O)NC2=O)C[C@H]2O[C@]1(C)n1c3ccccc3c3c4c(c5c6ccccc6n2c5c31)C(=O)NC4`, the IC50 [9] was 2.6 nM.

Compound `CC[C@H](C)[C@H](NC(=O)[C@H](CCC(=O)O)NC(=O)[C@H](CCC(=O)O)NC(=O)[C@H](Cc1ccc(P(=O)(O)O)cc1)NC(=O)[C@H](CCC(=O)O)NC(=O)COCC(=O)NCCOCCOCCOCCOCCOCCOCCOCCOCCn1cc(CCC(=O)N2CCN(c3cc(Nc4cc(C5CC5)[nH]n4)nc(C)n3)CC2)nn1)C(N)=O` has a pIC50 [10] of 6.80.

Work on `O=C(O)Cc1c(Br)c(Br)c(Br)c2[nH]nnc12` yielded an IC50 (Casein kinase 2) of 8000 nM.

In the case of `C[C@H](N)C(=O)N[C@@H](CCCNC(=N)N)C(=O)N[C@@H](CCCCNC(=O)C[C@@H](NC(=O)CCCCCNC(=O)[C@H]1O[C@@H](n2cnc3c(N)ncnc32)[C@H](O)[C@@H]1O)C(N)=O)C(=O)N[C@@H](CCCCN)C(=O)N[C@@H](CCC(=O)O)C(=O)N[C@H](C(=O)N[C@@H](C)C(N)=O)[C@H](C)O`, the pKd [11] was 6.77, the Selectivity Index (Homo sapiens [12]) was 9 and the pKd [13] was 5.80.

With `C[C@H](N)C(=O)N[C@@H](CCCNC(=N)N)C(=O)N[C@@H](CCCCNC(=O)C[C@@H](NC(=O)CCCCCNC(=O)[C@H]1O[C@@H](n2cnc3c(N)ncnc32)[C@H](O)[C@@H]1O)C(=O)O)C(=O)N[C@@H](CCCCN)C(=O)N[C@@H](CCC(N)=O)C(=O)N[C@H](C(=O)N[C@@H](C)C(N)=O)[C@@H](C)O` the pKd [11] was 6.82, the Selectivity Index (Homo sapiens [12]) was 50 and the pKd [13] was 5.11.

Compound `CC(C)[C@@H]1NC(=O)[C@H](CCCNC(=N)N)NC(=O)[C@H](Cc2ccccc2)NC(=O)[C@H]([C@@H](C)O)NC(=O)[C@@H](N)CSSC[C@@H](C(=O)NCC(N)=O)NC(=O)NC(=O)[C@H](Cc2ccccc2)NC1=O` has an IC50 [9] of 57000 nM.
